# In patent publication US12281304B2, “Compositions and methods for treating and preventing muscular disorders and dystrophies, steroid side effects, and inflammation” (Children's National Medical Center, priority 2018, dated 2025):
# System: miRNAs in diaphragm muscle of mdx mice
# Experiment: TaqMan low-density array (TLDA) miRNA profiling of diaphragm, discovery set (prophylactic mdx trial)
# Type: in vivo, mouse
# Conditions: mdx diaphragm, vs untreated mdx; Pred 5 mg/kg, Vam 15 mg/kg
# Excerpt: Archival muscle samples (diaphragm) from two separate preclinical studies were obtained, with each trial showing a significant benefit from both prednisolone and vamorolone drug treatments (23). Prednisolone was used because it is the active form of prednisone, the current DMD standard of care. The first, “discovery set” of diaphragm muscles was from a prophylactic trial design where 2-week old (postnatal day 15) mdx or wild type control mice received oral dosing for 6 weeks with vehicle (cherry syrup), prednisolone (5 mg/kg), or vamorolone (15 mg/kg) as previously reported (23). The second, “validation set” of diaphragm muscles was from an extended trial in older mice where mdx or wild type mice were subjected to treadmill running to unmask mild phenotypes. Mice in this validation set were treated with either vehicle, prednisolone (5 mg/kg) or vamorolone (45 mg/kg) for four months beginning at two months of age (23). At the endpoint of each trial, diaphragm muscles were harvested and frozen in liquid nitrogen-cooled isopentane.
# We extracted total RNA from 5 diaphragm muscles per treatment group in the discovery set of samples from 8-week old mice. RNA was extracted using a modified TRIzol protocol with isopropanol precipitation at −20° C. overnight. This RNA was reverse transcribed to cDNA using a High Capacity cDNA Reverse Transcription Kit with RNase Inhibitor (ThermoFisher; Carlsbad, Calif.), with miRNA-specific Megaplex RT Primers, Rodent Pools Set version 3.0 (ThermoFisher; Carlsbad, Calif.). Levels of each of the miRNAs were profiled in the discovery set using TAQMAN Array Rodent MiRNA A+B Cards Set v3.0 (ThermoFisher; Carlsbad, Calif.).
# In the discovery set experiments, levels of each miRNA were quantified in TaqMan low-density arrays using ThermoFisher Cloud software with the Relative Quantification Application (ThermoFisher; Carlsbad, Calif.) tool. Data was analyzed by ANOVA with post-hoc comparison of each group to the mdx vehicle-treated group. […] A P-value of P≤0.05 was set as the significance threshold, without adjustment for multiple comparisons. To reduce false-positive discovery in this setting, an evidence-based approach was used to identify efficacy associated miRNAs where 1) results from the multiple groups were cross-referenced, and 2) all candidate miRNAs identified in this discovery set were then assayed in a separate validation set of mice. For the validation set experiments, levels of each individual miRNA were assayed in samples from a second, independent preclinical trial in adult mdx mice. Data from individual TaqMan Assays was quantified using QuantStudio Real-Time PCR version 1.3 software (Applied Biosystems; Foster City, Calif.). The levels of all miRNAs were normalized to the geometric mean of multiple control genes (60, 70). Comparison of groups was made by ANOVA with Holm-Sidak post-hoc test comparing each group to mdx vehicle.
# To visualize behavior of miRNAs within individual mice for each group, heat map images were generated. Heat maps were generated using Rq values of TLDA array data exported from the Relative Quantification Application of the ThermoFisher Cloud software (ThermoFisher; Carlsbad, Calif.) tool. Heat maps of miRNA expression were produced using Hierarchical Clustering Explorer Version 3.5 (at www.cs.umd.edu/hcil/multi-cluster/) produced by the Human Computer Interaction Laboratory (University of Maryland; College Park, Md.).
# To examine miRNA expression TaqMan low density qPCR array cards were used to profile approximately 750 miRNAs within diaphragm muscle from a discovery set of mice. Samples for this experiment came from a trial that utilized a prophylactic approach (23). Briefly, mdx mice undergo a stage of peak severity characterized by widespread inflammation and necrosis from approximately 3-8 weeks of age, followed by a recovery stage where mice show milder phenotypes (25). […]
structure (smiles),measurement,value
C[C@]12C=CC(=O)C=C1CC[C@@H]1[C@@H]2[C@@H](O)C[C@@]2(C)[C@H]1CC[C@]2(O)C(=O)CO [prednisolone],Rq mmu-miR-214-002306,0.898
same,Rq mmu-miR-215-001200,0.792
same,Rq mmu-miR-218-000521,0.615
same,Rq mmu-miR-221-000524,0.687
same,Rq mmu-miR-222-002276,0.666
same,Rq mmu-miR-223-002295,0.804
same,Rq mmu-miR-296-5p-000527,1.035
same,Rq mmu-miR-301a-000528,0.687
same,Rq mmu-miR-301b-002600,0.862
same,Rq mmu-miR-322-001076,0.67
same,Rq mmu-miR-324-3p-002509,0.713
same,Rq mmu-miR-324-5p-000539,0.859
same,Rq mmu-miR-328-000543,0.888
same,Rq mmu-miR-335-3p-002185,1.354
same,Rq mmu-miR-335-5p-000546,0.756
same,Rq mmu-miR-337-3p-002532,0.853
same,Rq mmu-miR-338-3p-002252,0.469
same,Rq mmu-miR-339-5p-002257,0.652
same,Rq mmu-miR-340-3p-002259,0.581
same,Rq mmu-miR-340-5p-002258,0.602
same,Rq mmu-miR-342-3p-002260,0.407
same,Rq mmu-miR-342-5p-002527,0.529
same,Rq mmu-miR-345-5p-002528,0.713
same,Rq mmu-miR-350-002530,0.796
same,Rq mmu-miR-362-3p-002616,0.936
same,Rq mmu-miR-362-5p-002614,1.241
same,Rq mmu-miR-369-3p-000557,1.192
same,Rq mmu-miR-369-5p-001021,1.211
same,Rq mmu-miR-370-002275,1.975
same,Rq mmu-miR-376a#-002482,1.351
same,Rq mmu-miR-376a-001069,1.484
same,Rq mmu-miR-376b#-002451,1.084
same,Rq mmu-miR-376b-002452,1.602
same,Rq mmu-miR-376c-002450,0.966
same,Rq mmu-miR-379-001138,1.085
same,Rq mmu-miR-380-5p-002601,1.287
same,Rq mmu-miR-381-000571,1.359
same,Rq mmu-miR-382-000572,1.017
same,Rq mmu-miR-383-001767,0.551
same,Rq mmu-miR-384-5p-002602,0.618
same,Rq mmu-miR-409-3p-002332,1.906
same,Rq mmu-miR-410-001274,1.676
same,Rq mmu-miR-411-001610,1.171
same,Rq mmu-miR-431-001979,1.819
same,Rq mmu-miR-433-001028,2.288
same,Rq mmu-miR-434-5p-002581,1.271
same,Rq mmu-miR-450a-5p-002303,1.051
same,Rq mmu-miR-455-002455,0.612
same,Rq mmu-miR-467F-002886,1.346
same,Rq mmu-miR-467a-002587,0.751
same,Rq mmu-miR-467c-002517,0.992
same,Rq mmu-miR-483#-002560,1.367
same,Rq mmu-miR-486-001278,0.917
same,Rq mmu-miR-487b-001285,1.43
same,Rq mmu-miR-489-001302,0.792
same,Rq mmu-miR-491-001630,0.776
same,Rq mmu-miR-493-002519,2.641
same,Rq mmu-miR-494-002365,1.025
same,Rq mmu-miR-495-001663,1.448
same,Rq mmu-miR-497-001346,0.482
same,Rq mmu-miR-500-002606,0.935
same,Rq mmu-miR-501-3p-001651,0.97
same,Rq mmu-miR-503-002456,0.923
same,Rq mmu-miR-511-002549,0.48
same,Rq mmu-miR-532-3p-002355,1.067
same,Rq mmu-miR-532-5p-001518,1.087
same,Rq mmu-miR-540-3p-001310,0.908
same,Rq mmu-miR-541-002562,1.165
same,Rq mmu-miR-542-3p-001284,1.123
same,Rq mmu-miR-542-5p-002563,0.96
same,Rq mmu-miR-543-001298,2.644
same,Rq mmu-miR-543-002376,1.81
same,Rq mmu-miR-544-002550,1.001
same,Rq mmu-miR-574-3p-002349,0.667
same,Rq mmu-miR-652-002352,0.626
same,Rq mmu-miR-665-002607,1.683
same,Rq mmu-miR-669a-001683,0.678
same,Rq mmu-miR-673-3p-002449,1.562
same,Rq mmu-miR-673-001954,2.031
same,Rq mmu-miR-674#-001956,0.857
same,Rq mmu-miR-674-002021,0.846
same,Rq mmu-miR-675-3p-001941,1.258
same,Rq mmu-miR-682-001666,0.702
same,Rq mmu-miR-690-001677,0.744
same,Rq mmu-miR-706-001641,0.75
same,Rq mmu-miR-708-002341,0.636
same,Rq mmu-miR-720-001629,0.905
same,Rq mmu-miR-802-002029,0.245
same,Rq mmu-miR-805-002045,1.066
same,Rq mmu-miR-1274a-121150_mat,1.138
same,Rq mmu-miR-1941-3p-121130_mat,2.166
same,Rq mmu-miR-1943-121174_mat,0.831
same,Rq mmu-miR-1944-121189_mat,0.877
same,Rq mmu-miR-2146-241082_mat,1.113
same,Rq mmu-miR-30d-000420,0.701
same,Rq rno-miR-1-002064,0.911
same,Rq rno-miR-7#-001338,0.751
same,Rq rno-miR-7a#-002062,0.863
same,Rq rno-miR-20b-001326,0.491
same,Rq rno-miR-29c#-001818,0.826
same,Rq rno-miR-204#-002076,0.729
same,Rq rno-miR-224-000599,1.144
same,Rq rno-miR-345-3p-002061,0.859
same,Rq rno-miR-351-002063,1.366
same,Rq rno-miR-379#-002081,1.563
same,Rq rno-miR-381-001322,1.107
same,Rq rno-miR-489-001353,0.626
same,Rq rno-miR-664-001323,0.638
